Data taken from patent publication US20230339968A1, “KRAS Gl2C INHIBITORS” (Eli Lilly and Company, priority 2019, published 2023).
Where “and” joins values, the source holds several entries; their conditions need not be identical. Equal entries are not always repeated.

Legend:
NCI-H1792 = test: In vitro combination proliferation assay (4 day, Cell TiterGlo), NCI-H1792; assay type: cell-based; conditions: NCI-H1792, 4 day growth assay, absolute IC50
Description: Eleven cell lines for this study are obtained from ATCC and grown under ATCC recommended conditions. All cell lines have a KRAS G12C mutation, and they are […] lung cancer cell lines (H358, H1373, H1792, H2030, H2122, SW1573 and HCC44), two colorectal cancer cell lines (SW837 and SW1463), one pancreatic cancer cell line (MiaPaca-2), and one esophageal cancer cell line (KYSE410). The proliferation assay is performed as a 4 day growth assay using Cell TiterGlo® as the readout. Briefly, cells are plated in 96-well cell culture plates and allowed to adhere overnight at 37° C. The following day, cells are treated with compounds, either single treatments or combination treatments. First, the testing compounds are serially diluted in DMSO, followed by dilution into media as a 5×concentration with 1% DMSO, and finally added to cells in media to dilute to 1×. […] At the end of the incubation period, Cell TiterGlo® reagent is mixed and added to the wells. After 10 minutes, the luminescence is read by a Perkin Elmer Envision instrument. Absolute IC50 values generated by a 4-parameter logistics model for the single and combination treatments are generated, followed by combination indexes for each combination treatment and cell line. The combination IC50 values are adjusted based on the total concentration of each compound when added together. […] The combination index (CI) measures the degree to which the potency of a combination therapy differs from the expected-if-additive potency and is based on the Loewe definition of additivity.
• CA,y and CB,y are the concentrations of therapies A and B that produce an effect, y, when given in combination • ICA,y and ICB,y are the concentrations of A and B that produce an effect, y, when given individually
In some cases, if an estimated IC50 value is used for CI calculation, the calculated CI is called Potentiation Index. The biological interpretation of the combination or potentiation index is as follows: synergistic if the combination or potentiation index <0.5, additive if the combination or potentiation index is between 0.5 and 2, and antagonistic if the combination index or potentiation is >2.
Similar combinational effects are observed with carboplatin and cisplatin combination.

RAS GTPase = molecular target: T1, RAS GTPase (Homo sapiens, UniProt P01116, G12C); test: H358 Cellular Active RAS GTPase ELISA; assay type: cell-based; conditions: H358 cells, 2 hours; n=4; read-out: relative IC50
T1 construct: endogenous in cells; host or cells: H358 (ATCC CRL-5807)
Text: The purpose of this assay is to measure the ability of test compounds to inhibit constitutive RAS GTPase activity in human lung cancer cells H358 (ATCC CRL-5807). The RAS GTPase ELISA kit (Active Motif Cat #52097) contains a 96-well plate pre-coated with glutathione in order to capture a kit-supplied GST-Raf-RBD protein. Activated RAS (GTP-bound) in cell extracts specifically bind to the Raf-RBD. Bound RAS is detected with a primary antibody that recognizes human KRas. A secondary antibody conjugated with HRP recognizes the primary antibody and a development solution provides a chemiluminescent readout.
H358 cells are plated at 80,000 cells/well in 90 μL serum free media (RPMI 1640, GIBCO) and incubated overnight at 37° C./5% CO2. The next morning, 10 μL of serially-diluted (3-fold) test compounds (500 μM top concentration) and 10 μL of controls (Maximum signal wells: 5% DMSO and Minimum signal wells: 500 μM 1-[4-[6-chloro-8-fluoro-7-(3-hydroxy-1-naphthyl)quinazolin-4-yl]piperazin-1-yl]prop-2-en-1-one, WO2015054572 as an inhibitor) are added to the cell plate and incubated for 2 hours at 37° C./5% CO2. […] The assay plate is then read on an EnVision™ Plate Reader (Perkin Elmer) using a luminescence program. […]
Compounds within the scope of this invention are evaluated in this assay substantially as described above.

T1 sequence (P01116 1-188 isoform P01116-2 G12C): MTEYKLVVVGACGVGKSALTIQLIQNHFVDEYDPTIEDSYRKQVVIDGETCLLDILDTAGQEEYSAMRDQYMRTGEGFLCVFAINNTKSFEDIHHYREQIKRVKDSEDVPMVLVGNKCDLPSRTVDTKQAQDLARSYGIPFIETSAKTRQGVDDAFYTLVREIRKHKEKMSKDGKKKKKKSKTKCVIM

Row | IC50 (RAS GTPase) | SMILES | IC50, single treatment (Compound IC50 / Example 35 IC50 / ABS_IC50) (NCI-H1792)
1 | – | C=CC(=O)N1CCN2C(=O)c3cc(F)c(-c4ccc(F)c5sc(N)c(C#N)c45)c(Cl)c3OCC[C@H]2C1 [Example 35, 4-[(13aS)-10-Chloro-8-fluoro-6-oxo-2-prop-2-enoyl-1,3,4,12,13,13a-hexahydropyrazino[2,1-d][1,5]benzoxazocin-9-yl]-2-amino-7-fluoro-benzothiophene-3-carbonitrile] | 0.8629 µM and 0.8399 µM
2 | 6.72 nM | C=CC(=O)N1CCN2C(=O)c3cc(Cl)c(-c4ccc(F)c5sc(N)nc45)c(Cl)c3OCC[C@H]2C1 (atropisomer, axis not shown) [Example 1, (13aS)-9-(2-Amino-7-fluoro-1,3-benzothiazol-4-yl)-8,10-dichloro-2-prop-2-enoyl-1,3,4,12,13,13a-hexahydropyrazino[2,1-d][1,5]benzoxazocin-6-one] | –
